{
  "source": "patent US20060089410A1",
  "about": "“Combination of chemotherapeutic drugs for increasing antitumor activity” (Titan Pharmaceuticals, Inc., priority 2002, published 2006)",
  "key": {"[1]": {"test_system": "Calu-6 anaplastic lung carcinoma cells", "test": "Crystal violet microtiter assay, Pivanex then cytotoxic drug, Calu-6", "assay_type": "cell-based", "settings": "Pivanex 0 μM", "experimental": "(§1) T24 Bladder transitional carcinoma cells, Calu-6 anaplastic lung carcinoma cells, and SK-MES-1 squamous lung cell carcinoma cell cultures were purchased from the American Type Culture Collection (Manassas, Va.). All cell lines were cultured in RPMI-1640 with 10% fetal calf serum. For culture in microtiter dishes, cells were plated at a density of 10^4 cells/well and incubated at 37° C., 5% CO2 overnight.\n(§2) After overnight incubation, drugs were added to wells in quadruplicate and incubated for 6 to 96 hours in the presence or absence of the oxyalkylene containing compound. […] the media was removed, fresh media were added with cytotoxic drug, and the cultures were incubated for another 6 hours.\n(§3) The wells were then washed and medium without drug was added to each well. Microtiter plates were subsequently incubated for an additional 3 days before cell density was determined by a Crystal Violet Assay. Some cultures were alternatively fixed in methanol and stained with hematoxylin and eosin (H&E) stain for 5 minutes prior to microphotography.\n(§4) PIVANEX (pivaloyloxymethyl butyrate) was obtained from Titan Pharmaceuticals Inc. (South San Francisco, Calif.) and was admixed with 0.05% Intralipid™ (Fresenius Kabi, Clayton, N.C.) prior to addition to culture media. The cytotoxic drugs gemcitabine (Gemzar; Eli Lilly and Co., Indianapolis, Ind.), cisplatin (Platinol, Bristol-Myers Squibb Co., Princeton, N.J.), paclitaxel (Taxol; Bristol-Myers Squibb Co., Princeton, N.J.), and docetaxel (Taxotere, Aventis Pharmaceuticals Products, Inc., Bridgewater, N.J.) were studied with PIVANEX.\n(§5) Cells in microtiter wells were rinsed with PBS and fixed in two volumes of 100% cold methanol for 5 minutes. One volume of 0.5% crystal violet in 20% methanol was added and the attached cells stained for 10 minutes. The cells were then washed and crystal violet was eluted with 0.1 N sodium citrate buffer and read on an ELISA plate reader at 490 nm."}, "[2]": {"test_system": "T24 Bladder transitional carcinoma cells", "test": "Crystal violet microtiter assay, Pivanex then cytotoxic drug, T24", "assay_type": "cell-based, human", "settings": "Pivanex 0 μM", "experimental": "as §1, §2, §3, §4, §5"}, "[3]": {"test_system": "SK-MES-1 squamous lung cell carcinoma cell", "test": "Crystal violet microtiter assay, Pivanex then cytotoxic drug, SK-MES-1", "assay_type": "cell-based", "settings": "Pivanex 0 μM", "experimental": "as §1, §2, §3, §4, §5"}, "[4]": {"test_system": "H23 (NCI-H23) NSCLC cell line", "test": "MTS growth inhibition assay, sequencing of Pivanex and docetaxel, H23", "assay_type": "cell-based, human", "settings": "after 24 hour exposure"}, "H522 NSCLC cell line": {"test_system": "H522 NSCLC cell line", "test": "MTS growth inhibition assay, sequencing of Pivanex and docetaxel, H522", "assay_type": "cell-based, human", "settings": "after 24 hour exposure", "experimental": "Human Non-Small Cell Lung Carcinoma Cell Lines, H522 and NCI-H23, were evaluated for growth inhibitory activity of Pivanex, alone and in combination with the standard chemotherapeutic agent, docetaxel. Cells were treated for three days with Pivanex followed by 24 hours of exposure to docetaxel or the cells were treated for 24 hours with docetaxel followed by three days of exposure to Pivanex. The cell growth inhibition was judged at the end of the 4-day experiments by a standard staining technique using MTS tetrazolium vital stain. […]\nExponentially growing cells were harvested with trypsin (0.05%)/EDTA (0.02%) and re-suspended in fresh medium containing 10% FBS. […] Absorbance was documented on a Dynex HD microplate reader at a wavelength of 490 nm. IC50 values were determined by using the Prism® GraphPad software from 3 different tests, each of which involved 4 replicates for each dose determination. The data are presented as percent growth inhibition, where 0% represents the mean value in wells to which only vehicle (0.1% DMSO) was added and was calculated as follows: % Growth Inhibition=(1−(ODtest/ODvehicle))×100 where ODtest is the optical density of the tested sample, OD vehicle is the optical density of the vehicle in which each respected drug is dissolved. […]"}, "[5]": {"test_system": "refractory acute myelogenous leukemia in relapse", "settings": "child, 0.5 g/kg/day; cited from earlier work"}, "[6]": {"test_system": "leukemic cells isolated from myelogenous leukemic patients", "settings": "in vitro"}, "[7]": {"settings": "cited from earlier work"}},
  "note": "Where a name gives a salt, the structure may show the parent alone. Read-outs that look alike come from different tables or passages of the source.",
  "data": [
    {"smiles": "N.N.[Cl][Pt][Cl]", "note": "[Cisplatin, cisplatin, reference compound]", "values": [
      {"measurement": "Calu-6 cancer cell viability (A^490 Absorbance)", "setting": "[1]; cisplatin 5 μM", "value": 0.557},
      {"measurement": "Calu-6 cancer cell viability (A^490 Absorbance)", "setting": "[1]; cisplatin 10 μM", "value": 0.328},
      {"measurement": "Calu-6 cancer cell viability (A^490 Absorbance)", "setting": "[1]; cisplatin 20 μM", "value": 0.238},
      {"measurement": "Calu-6 cancer cell viability (A^490 Absorbance)", "setting": "[1]; cisplatin […]", "value": 0.608},
      {"measurement": "T24 cancer cell viability (A^490 Absorbance)", "setting": "[2]; cisplatin 5 μM", "value": 0.434},
      {"measurement": "T24 cancer cell viability (A^490 Absorbance)", "setting": "[2]; cisplatin 10 μM", "value": 0.404},
      {"measurement": "T24 cancer cell viability (A^490 Absorbance)", "setting": "[2]; cisplatin 20 μM", "value": 0.25},
      {"measurement": "T24 cancer cell viability (A^490 Absorbance)", "setting": "[2]; cisplatin […]", "value": 0.486},
      {"measurement": "SK-MES-1 non-small cancer cell viability (A^490 Absorbance)", "setting": "[3]; cisplatin 10 μM", "value": 1.562},
      {"measurement": "SK-MES-1 non-small cancer cell viability (A^490 Absorbance)", "setting": "[3]; cisplatin 20 μM", "value": 1.477}
    ]},
    {"smiles": "CC(=O)O[C@@]12CO[C@@H]1C[C@H](O)[C@@]1(C)C(=O)[C@H](O)C3=C(C)[C@@H](OC(=O)[C@H](O)[C@@H](NC(=O)OC(C)(C)C)c4ccccc4)C[C@@](O)([C@@H](OC(=O)c4ccccc4)[C@H]21)C3(C)C", "note": "[Docetaxel, docetaxel]", "values": [
      {"measurement": "Calu-6 cancer cell viability (A^490 Absorbance)", "setting": "[1]; docetaxel 25 nM", "value": 0.219},
      {"measurement": "Calu-6 cancer cell viability (A^490 Absorbance)", "setting": "[1]; docetaxel 50 nM", "value": 0.183},
      {"measurement": "Calu-6 cancer cell viability (A^490 Absorbance)", "setting": "[1]; docetaxel 100 nM", "value": 0.174},
      {"measurement": "Calu-6 cancer cell viability (A^490 Absorbance)", "setting": "[1]; docetaxel 200 nM", "value": 0.148},
      {"measurement": "cell growth with agent alone", "setting": "[4]", "value": "steep increase in H23 cell growth"},
      {"measurement": "cell growth with agent alone", "setting": "H522 NSCLC cell line", "value": "steep increase in H522 cell growth"}
    ]},
    {"smiles": "Nc1ccn([C@@H]2O[C@H](CO)[C@@H](O)C2(F)F)c(=O)n1", "note": "[Gemcitabine, gemcitabine]", "values": [
      {"measurement": "Calu-6 cancer cell viability (A^490 Absorbance)", "setting": "[1]; gemcitabine 25 nM", "value": 0.587},
      {"measurement": "Calu-6 cancer cell viability (A^490 Absorbance)", "setting": "[1]; gemcitabine 50 nM", "value": 0.466},
      {"measurement": "Calu-6 cancer cell viability (A^490 Absorbance)", "setting": "[1]; gemcitabine 100 nM", "value": 0.456},
      {"measurement": "Calu-6 cancer cell viability (A^490 Absorbance)", "setting": "[1]; gemcitabine 200 nM", "value": 0.403},
      {"measurement": "T24 cancer cell viability (A^490 Absorbance)", "setting": "[2]; gemcitabine 10 nM", "value": 0.48},
      {"measurement": "T24 cancer cell viability (A^490 Absorbance)", "setting": "[2]; gemcitabine 50 nM", "value": 0.422}
    ]},
    {"smiles": "CC(=O)O[C@H]1C(=O)[C@@]2(C)[C@H]([C@H](OC(=O)c3ccccc3)[C@]3(O)C[C@H](OC(=O)[C@H](O)[C@@H](NC(=O)c4ccccc4)c4ccccc4)C(C)=C1C3(C)C)[C@]1(OC(C)=O)CO[C@@H]1C[C@@H]2O", "note": "[Paclitaxel, paclitaxel, reference compound]", "values": [
      {"measurement": "SK-MES-1 cancer cell viability (A^490 Absorbance)", "setting": "[3]; paclitaxel 25 μM", "value": 0.655},
      {"measurement": "SK-MES-1 cancer cell viability (A^490 Absorbance)", "setting": "[3]; paclitaxel 50 μM", "value": 0.627},
      {"measurement": "SK-MES-1 cancer cell viability (A^490 Absorbance)", "setting": "[3]; paclitaxel 100 μM", "value": 0.42}
    ]},
    {"smiles": "CCCC(=O)O", "note": "[butyric acid/salts, butyric acid]", "values": [
      {"measurement": "clinical response", "setting": "[5]", "value": "partial and temporary remission"},
      {"measurement": "cytotoxic and cytodifferentiating potency compared with retinoic acid, 1, 25-dihydroxy vitamin D and cytosine arabinoside", "setting": "[6]", "value": "most potent cytotoxic and cytodifferentiating agent"},
      {"measurement": "toxicity", "setting": "[7]; child with refractory acute myelogenous leukemia in relapse, 0.5 g/kg/day", "value": "without detectable toxic effects"},
      {"measurement": "toxicity", "setting": "[7]; clinical trials with high dosages", "value": "no toxicity"},
      {"measurement": "adverse reaction in clinical follow up", "setting": "[7]; patient with acute myelogenous leukemia in relapse, 1.0 g/kg/day for 10 days and 1.5 g/kg/day for 6 days", "value": "no adverse reaction"},
      {"measurement": "toxicity", "setting": "[7]; patients with neuroblastoma, doses of up to 10 g/day", "value": "no clinically detectable toxicity"}
    ]}
  ]
}
